Reference: patent US5567624A, “Carbazine dyes and derivatives for pH measurement” (Utah Medical Products, Inc., priority 1995, dated 1996)

How the values were obtained:
Assay type in all cases: physicochemical
[1] = pKa of the dyes in aqueous solution, derived from the absorbance spectra
Source text: The pKa values, i.e. the approximate pH values of an aqueous solution of the dye where the acid and base forms of the dye are present in equal concentrations, were derived from the absorbance spectra and are listed in the Table below. As mentioned above, indicator dyes are generally most sensitive to pH changes near their pKa s.

[2] = Absorbance and fluorescence emission spectra of acid and base forms of the dyes; conditions: Table, footnote c
Method: Certain properties of the carbazine dyes of Examples 1-7 were determined. Spectral data were obtained either with a Hewlett Packard Model 8452A Diode Array Spectrophotometer or a Perkin Elmer Model LS 50B Luminescence Spectrometer. All of the dyes are similar in their absorbance and emission spectra, with only slight differences in peak locations, ratios of absorbance of acid to absorbance of base, and pKa s. The unmodified dyes show large separation between absorbance peaks for acid and base forms. Typically, the acid form has a peak absorbance at about 480 nm, and the base form has a peak absorbance at about 660 nm. Fluorescence emission of the base form has a well-defined single peak at approximately 690 nm.

[3] = Fluorescence rating / quantum yield in aqueous solution; conditions: for Fluorescence: relative scale of 1 to 10 where 10 is best, excitation at maximum absorbance wavelength, constant concentration and pH
Source text: The fluorescence ratings shown in the Table are based on the maximum fluorescence obtainable from an aqueous carbazine dye solution with excitation at the maximum absorbance wavelength for the particular dye, but with concentrations and pH constant between all dyes. […] Quantum yields of the acid forms of the dyes appears as high as the base forms. The carbazine dye of Example 4, sold commercially as "CARBAZINE 720" (Exciton, Inc., Dayton, Ohio), has a quantum yield of approximately 50% in aqueous solution containing base.

Row | pKa [1] | Absorbance ratio of acid/base [2] | Fluorescence [3] | quantum yield ([3]; aqueous solution containing base) | SMILES
1 | 6.4 | 0.377 | 7 | – | CC1=CC(=O)C=C(C(C)C)C12C1=CC(=O)C=CC1=Nc1ccc(O)cc12 (stereo not shown) [Example 6]
2 | 7.2 | 0.324 | 6 | – | CC(C)(C)C1=CC2(C=CC1=O)C1=CC(=O)C=CC1=Nc1ccc(O)cc12 (stereo not shown) [Example 7]

Further lines, the compound ahead of its results:

Row | SMILES | pKa [1] | Absorbance ratio of acid/base [2] | Fluorescence [3] | quantum yield ([3]; aqueous solution containing base)
3 | CC1=CC(=O)C(C)=C(C)C12C1=CC(=O)C=CC1=Nc1ccc(O)cc12 (stereo not shown) [Example 3] | 6.5 | 0.380 | 10 | –
4 | CC1=CC(=O)C=C(C)C12C1=CC(=O)C=CC1=Nc1ccc(O)cc12 [Example 2] | 6.5 | 0.391 | 7 | –
5 | O=C1C=CC2=Nc3ccc(O)cc3C3(C=CC(=O)C4=C3CCCC4)C2=C1 (stereo not shown) [Example 5] | 6.7 | 0.387 | 8 | –
6 | CC1=C(C)C2(C3=CC(=O)C=CC3=Nc3ccc(O)cc32)C(C)=C(C)C1=O [Example 4, 7-hydroxy-2',3',5',6'-tetramethylspiro[acridine-9,1'-cyclohexa-2', 5'-diene]-2(9H), 4'-dione] | 6.5 | 0.388 | 10 | approximately 50%
7 | O=C1C=CC2(C=C1)C1=CC(=O)C=CC1=Nc1ccc(O)cc12 [Example 1, 7-hydroxyspiro[acridine-9,1'-cyclohexa-2',5'-diene]-2(9H),4'-dione] | 6.5 | 0.426 | 2 | –
